From ChEMBL document CHEMBL5055671, “Targeting a Novel KRAS Binding Site: Application of One-Component Stapling of Small (5-6-mer) Peptides” (J Med Chem, 2021) come the findings set out here.

One test addresses GTPase KRas (Homo sapiens, UniProt P01116, G12V). In words: Inhibition of alexa fluor 647-labeled kinase tracer 314 binding to biotinylated-KRAS G12V mutant (unknown origin) measured after 60 mins by HTRF competition binding assay. The following applies: read-out: IC50. (TR-FRET usually uses a lanthanide donor and a delayed reading to cut background.)
Test [1] concerns GTPase KRas (Homo sapiens), P01116 [G12V]. In words: Inhibition of alexa fluor 647-labeled kinase tracer 314 binding to biotinylated-KRAS G12V mutant (unknown origin) at 100 uM measured after 60 mins by HTRF competition binding assay.
Test [2] is described as follows: Inhibition of GDP-tagged biotinylated KRas G12C mutant (unknown origin)/GST-Raf (unknown origin) assessed as SOS-mediated nucleotide exchange measured after 1 hr by HRTF assay. Set-up: species or system Homo sapiens.

For `CC[C@H](C)[C@@H]1NC(=O)[C@@H]2CCCN2C(=O)[C@H](Cc2ccc(O)cc2)NC(=O)CCCCn2cc(nn2)CSC[C@@H](C(=O)N[C@@H](CC(C)C)C(N)=O)NC1=O`, the figures for the 50% inhibitory concentration (IC50) (at GTPase KRas; in test [2]) were greater than 100 µM and greater than 30 µM, respectively. The inhibition in test [1] was 0%.

On to `CC[C@H](C)[C@@H]1NC(=O)[C@@H]2CCCN2C(=O)[C@H](Cc2ccc(O)cc2)NC(=O)CCCCn2nncc2CSC[C@@H](C(=O)N[C@@H](CC(C)C)C(N)=O)NC1=O`, for which the IC50 was greater than 100 µM at GTPase KRas and greater than 30 µM in test [2]. The same compound came in with an inhibition in test [1] of 20%.

Regarding `CC[C@H](C)[C@@H]1NC(=O)[C@@H]2CCCN2C(=O)CNC(=O)CCCc2cn(nn2)CC[C@@H](C(=O)N[C@@H](CC(C)C)C(N)=O)NC1=O`, at GTPase KRas, the half-inhibitory concentration (IC50) was greater than 100 µM. In test [1], the inhibition was found to be 6%.

Turning to `CC[C@H](C)[C@@H]1NC(=O)[C@@H]2CCCN2C(=O)[C@H](Cc2ccc(O)cc2)NC(=O)CCCCn2nncc2COC[C@@H](C(=O)N[C@@H](CC(C)C)C(N)=O)NC1=O`, the results for the half-maximal inhibitory concentration (IC50) (on GTPase KRas; in test [2]) were greater than 100 µM and greater than 30 µM, respectively. In test [1], this compound registered an inhibition of 28%.

In the case of `C=C1/C=C/COC[C@@H](C(=O)N[C@@H](CC(C)C)C(N)=O)NC(=O)[C@H]([C@@H](C)CC)NC(=O)[C@@H]2CCCN2C(=O)CNC(=O)C1`, at GTPase KRas, the half-maximal inhibitory concentration (IC50) worked out at 98 µM. In test [1], this compound had an inhibition of 46%.

With `CC(C)C[C@H](NC(=O)[C@@H]1COCc2cnnn2CCCCC(=O)NCC(=O)N2CCC[C@H]2C(=O)N[C@@H](Cc2cccc3ccccc23)C(=O)N1)C(N)=O`, the concentration for half-maximal inhibition (IC50) on GTPase KRas was found to be 7.1 µM; in test [2], 2.4 µM.

Regarding `CC[C@H](C)[C@@H]1NC(=O)[C@@H]2CCCN2C(=O)CNC(=O)CCCc2cnnn2C[C@@H](C(=O)N[C@@H](CC(C)C)C(N)=O)NC1=O`, the concentration for half-maximal inhibition (IC50) at GTPase KRas was greater than 100 µM. The compound also came in with an inhibition in test [1] of 16%.

Take `CC[C@H](C)[C@@H]1NC(=O)[C@@H]2CCCN2C(=O)[C@H](Cc2ccc(O)cc2)NC(=O)CCCCn2cc(nn2)COC[C@@H](C(=O)N[C@@H](CC(C)C)C(N)=O)NC1=O`: the 50% inhibitory concentration (IC50) at GTPase KRas is greater than 100 µM; in test [2], greater than 30 µM. In test [1], this compound yielded an inhibition of 22%.

`C=C1/C=C/CCCC(=O)N[C@@H](C)C(=O)N2CCC[C@H]2C(=O)N[C@@H]([C@@H](C)CC)C(=O)N[C@H](C(=O)N[C@@H](CC(C)C)C(N)=O)CSC1`: the half-maximal inhibitory concentration (IC50) at GTPase KRas was greater than 100 µM. Further, in test [1], the inhibition is 28%.

Turning to `CC[C@H](C)[C@@H]1NC(=O)[C@@H]2CCCN2C(=O)[C@H](C)NC(=O)c2ccccc2/C=C/COC[C@@H](C(=O)N[C@@H](CC(C)C)C(N)=O)NC1=O`, at GTPase KRas, the IC50 was greater than 100 µM. The compound further came in with an inhibition in test [1] of 25%.

As to `CC(C)C[C@H](NC(=O)[C@@H]1COCc2cnnn2CCC(=O)NCC(=O)N2CCC[C@H]2C(=O)N[C@@H](Cc2cccc3ccccc23)C(=O)N1)C(N)=O`, the half-inhibitory concentration (IC50) stood at 7 µM at GTPase KRas and 3.6 µM in test [2].

On to `CC[C@H](C)[C@@H]1NC(=O)[C@@H]2CCCN2C(=O)[C@H](Cc2ccccc2)NC(=O)CCCc2cn(nn2)C[C@@H](C(=O)N[C@@H](CC(C)C)C(N)=O)NC1=O`, for which the IC50 was greater than 100 µM on GTPase KRas and greater than 30 µM in test [2]. This compound also had an inhibition in test [1] of 8%.

With `C=C1/C=C/COC[C@@H](C(=O)N[C@@H](CC(C)C)C(N)=O)NC(=O)[C@H]([C@@H](C)CC)NC(=O)[C@@H]2CCCN2C(=O)CNC(=O)CC1`, the half-maximal inhibitory concentration (IC50) at GTPase KRas is greater than 100 µM. The compound further came in with an inhibition in test [1] of 21%.

Turning to `CC(C)C[C@H](NC(=O)[C@@H]1COCc2cnnn2CCCCC(=O)NCC(=O)N2CCOC[C@H]2C(=O)N[C@@H](Cc2cccc3ccccc23)C(=O)N1)C(N)=O`, the values for the IC50 (at GTPase KRas; in test [2]) were 6.5 µM and 5 µM, respectively.

As for `CC[C@H](C)[C@@H]1NC(=O)[C@@H]2CCCN2C(=O)[C@H](C)NC(=O)CCC/C=C/COC[C@@H](C(=O)N[C@@H](CC(C)C)C(N)=O)NC1=O`, on GTPase KRas, the 50% inhibitory concentration (IC50) is greater than 100 µM. Moreover, the inhibition in test [1] is 5%.

As for `CC(C)C[C@H](NC(=O)[C@H]1CSCc2cnnn2CCCCC(=O)NCC(=O)N2CCC[C@H]2C(=O)N[C@@H](Cc2cccc3ccccc23)C(=O)N1)C(N)=O`, the IC50 on GTPase KRas came out at 11 µM; in test [2] it was 2.5 µM.

Consider `CC(C)C[C@H](NC(=O)[C@@H]1COCc2cnnn2CC(=O)NCC(=O)N2CCC[C@H]2C(=O)N[C@@H](Cc2cccc3ccccc23)C(=O)N1)C(N)=O`, for which the IC50 at GTPase KRas is 9.6 µM; in test [2], 3.2 µM.

Regarding `CC[C@H](C)[C@@H]1NC(=O)[C@@H]2CCCN2C(=O)[C@H](Cc2ccc(O)cc2)NC(=O)CCc2cnnn2CC[C@@H](C(=O)N[C@@H](CC(C)C)C(N)=O)NC1=O`, on GTPase KRas, the half-inhibitory concentration (IC50) was greater than 100 µM. In test [1], this compound gave an inhibition of 44%.

As to `CC[C@H](C)[C@@H]1NC(=O)[C@@H]2CCCN2C(=O)CNC(=O)CCCc2cnnn2CC[C@@H](C(=O)N[C@@H](CC(C)C)C(N)=O)NC1=O`, the IC50 on GTPase KRas was greater than 100 µM. The compound further yielded an inhibition in test [1] of 22%.

Take `CC[C@H](C)[C@@H]1NC(=O)[C@@H]2CCCN2C(=O)CNC(=O)CCCCn2nncc2COC[C@@H](C(=O)N[C@@H](CC(C)C)C(N)=O)NC1=O`: on GTPase KRas, the concentration for half-maximal inhibition (IC50) is 100 µM. Also, the inhibition in test [1] amounted to 48%.

Regarding `CC[C@H](C)[C@@H]1NC(=O)[C@@H]2CCCN2C(=O)[C@H](C)NC(=O)CCCCn2nncc2COC[C@@H](C(=O)N[C@@H](CC(C)C)C(N)=O)NC1=O`, the IC50 at GTPase KRas was greater than 100 µM. In test [1], the inhibition was found to be 30%.

As for `CC[C@H](C)[C@@H]1NC(=O)[C@@H]2CCCN2C(=O)CNC(=O)CCCC#CC#CCOC[C@@H](C(=O)N[C@@H](CC(C)C)C(N)=O)NC1=O`, the concentration for half-maximal inhibition (IC50) at GTPase KRas is greater than 100 µM. In addition, in test [1], the inhibition stood at 0%.

In the case of `CC(C)C[C@H](NC(=O)[C@@H]1COCc2cnnn2CCCC(=O)NCC(=O)N2CCC[C@H]2C(=O)N[C@@H](Cc2cccc3ccccc23)C(=O)N1)C(N)=O`, the half-maximal inhibitory concentration (IC50) at GTPase KRas is 10 µM; in test [2] it was 4.1 µM.

For `CCCC[C@H](NC(=O)[C@@H]1COCc2cnnn2CCCCC(=O)NCC(=O)N2CCC[C@H]2C(=O)N[C@@H](Cc2cccc3ccccc23)C(=O)N1)C(N)=O`, on GTPase KRas, the concentration for half-maximal inhibition (IC50) was found to be 100 µM.

On to `CC[C@H](C)[C@@H]1NC(=O)[C@@H]2CCCN2C(=O)[C@H](Cc2ccccc2)NC(=O)CCCCn2nncc2COC[C@@H](C(=O)N[C@@H](CC(C)C)C(N)=O)NC1=O`, for which, at GTPase KRas, the IC50 is greater than 100 µM. This compound returned an inhibition in test [1] of 38%.

For `CC[C@H](C)[C@@H]1NC(=O)[C@@H]2CCCN2C(=O)[C@H](Cc2ccccc2)NC(=O)CCCc2cn(nn2)CC[C@@H](C(=O)N[C@@H](CC(C)C)C(N)=O)NC1=O`, the IC50 at GTPase KRas was greater than 100 µM; in test [2], greater than 30 µM. The same compound gave an inhibition in test [1] of 9%.

For `CC[C@H](C)[C@@H]1NC(=O)[C@@H]2CCCN2C(=O)CNC(=O)CCCn2nncc2COC[C@@H](C(=O)N[C@@H](CC(C)C)C(N)=O)NC1=O`, the half-inhibitory concentration (IC50) on GTPase KRas was greater than 100 µM. The compound further showed an inhibition in test [1] of 39%.

`CC(C)C[C@H](NC(=O)[C@@H]1COCc2cnnn2CCCCC(=O)N[C@H](C)C(=O)N2CCC[C@H]2C(=O)N[C@@H](Cc2cccc3ccccc23)C(=O)N1)C(N)=O`: the IC50 at GTPase KRas is 25 µM.

Consider `CC(C)C[C@H](NC(=O)[C@@H]1COCc2cnnn2CCCCC(=O)NCC(=O)N2CC[C@H]2C(=O)N[C@@H](Cc2cccc3ccccc23)C(=O)N1)C(N)=O`, for which the IC50 at GTPase KRas amounted to 32 µM.

For `CC[C@H](C)[C@@H]1NC(=O)[C@@H]2CCCN2C(=O)[C@H](C)NC(=O)CCCC#CC#CCOC[C@@H](C(=O)N[C@@H](CC(C)C)C(N)=O)NC1=O`, at GTPase KRas, the IC50 is greater than 100 µM. In test [1], the inhibition was 0%.

`CC(C)C[C@H](NC(=O)[C@H]1CCCc2cnnn2CCCCC(=O)NCC(=O)N2CCC[C@H]2C(=O)N[C@@H](Cc2cccc3ccccc23)C(=O)N1)C(N)=O`: the IC50 at GTPase KRas stood at 19 µM.

Regarding `CC(C)C[C@H](NC(=O)[C@@H]1COCc2cnnn2CCCCC(=O)N2CCC[C@H]2C(=O)N[C@@H](Cc2cccc3ccccc23)C(=O)N1)C(N)=O`, the IC50 at GTPase KRas came out at 48 µM.

In the case of `CC(C)C[C@H](NC(=O)[C@@H]1COCc2cnnn2CCCCC(=O)NCC(=O)N2CCCC[C@H]2C(=O)N[C@@H](Cc2cccc3ccccc23)C(=O)N1)C(N)=O`, the IC50 is 7.7 µM on GTPase KRas and 2.4 µM in test [2].

What is called IC50 is the concentration that gives 50% inhibition. One may read the inhibition as how much of the control response was suppressed. A high value points to a response far below the control.
